Assay results from patent US11236084B2, “Substituted azaindoline derivatives as NIK inhibitors” (Janssen Pharmaceutica NV, priority 2017, dated 2022).
Read-outs that look alike come from different tables or passages of the source.

What was measured:
[1] = target: T1, recombinant human NF-kappaB-inducing kinase (NIK/MAP3K14) (Homo sapiens, UniProt Q99558); experiment: Biological Assay A: inhibition of recombinant human NF-kappaB-inducing kinase (NIK/MAP3K14) activity (MBP phosphorylation, Mesoscale); details: MSD MBP; averaged over all measurements on all batches; read-out: Assay A Biochemical (MSD MBP) IC50
Experimental: Pharmacological Part Biological Assay A Inhibition of Recombinant Human NF-kappaB-Inducing Kinase (NIK/MAP3K14) Activity
Assay buffer was 50 mM Tris pH 7.5 containing 1 mM EGTA (ethylene glycol tetraacetic acid), 1 mM DTT (dithiothreitol), 0.1 mM Na3VO4, 5 mM MgCl2, 0.01% Tween® 20. Assays were carried out in 384 well Mesoscale high binding plates which had been coated with myelin basic protein (MBP) and blocked with bovine serum albumin to prevent non-specific protein binding. All compounds tested were dissolved in dimethyl sulfoxide (DMSO) and further dilutions were made in assay buffer. Final DMSO concentration was 1% (v/v) in assays. Incubations consisted of compound (1% DMSO in control and blank wells), 25 μM […] (ATP), and 10 nM NIK/MAP3K14 substituting enzyme with buffer in the blank wells. Incubations were carried out for 1 h at 25° C. and were followed by washing and sequential incubation with rabbit anti-phospho-MBP and anti-rabbit Ig Sulfotag antibody before reading bound Sulfotag on a Mesoscale Discovery. Signal obtained in the wells containing blank samples was subtracted from all other wells and […] were determined by fitting a sigmoidal curve to % inhibition of control versus Log10 compound concentration.
(§1) Data for the compounds of the invention in the above assays are provided in Table A (the values in Table are averaged values over all measurements on all batches of a compound; values as IC50 (nM)). (‘n.c.’ means not calculated: ‘Co.’ means compound)

[2] = target: T1, recombinant human NF-kappaB-inducing kinase (NIK/MAP3K14); experiment: Biological Assay B: inhibition of auto-phosphorylation of recombinant human NIK/MAP3K14 (AlphaScreen), performed at 2 locations; format: biochemical; details: averaged values
Method in brief: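 Run at two separate sites: 1 h, 25° C. reactions containing 0.2 nM GST-NIK, 25 microM ATP and compound (1% DMSO) in Tris pH 7.5/MgCl2 buffer. Phosphorylation detected via anti-phospho-IKK Ser176/180 antibody with AlphaScreen beads; IC50 fitted to % inhibition.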

[3] = system: P-IKKα levels in L363 (NIK translocated multiple myeloma) cells; experiment: Biological Assay C: effect of compounds on P-IKKα levels in L363 (NIK translocated multiple myeloma) cells, performed at 2 locations; format: cell-based, human; details: L363 cells, P-IKKα levels, averaged values
Experimental: Effect of Compounds on P-IKKα Levels in L363 (NIK Translocated Multiple Myeloma) Cells
All compounds tested were dissolved in DMSO and further dilutions were made in culture medium. Final DMSO concentration was 1% (v/v) in cell assays. The human L363 cells (ATCC) were cultured in RPMI 1640 medium supplemented with GlutaMax and 10% fetal calf serum (PAA). Cells were routinely maintained at densities of 0.2×10^6 cells per ml-1×10^6 cells per ml at 37° C. in a humidified 5% CO2 atmosphere. Cells were passaged twice a week splitting back to obtain the low density. Cells were seeded in 96 well plates (Nunc 167008) at 2×10^6 per ml media in a volume of 75 μl per well plus 25 μl […] recombinant human B-cell activating factor (BAFF/BLyS/TNFSF13B). Seeded cells were incubated at 37° C. in a humidified 5% CO2 atmosphere for 24 hr. Drugs and/or solvents were added (20 μl) to a final volume of 120 μl. Following 2 hr treatment plates were removed from the incubator and cell lysis was achieved by the addition of 30 μl 5× lysis buffer followed by shaking on a plate shaker at 4° C. for 10 min. At the end of this incubation lysed cells were centrifuged at 800×g for 20 min at 4° C. and the lysate was assessed for P-IKKα levels by sandwich immuno-assay carried out in anti-rabbit antibody coated Mesoscale plates. Within an experiment, the results for each treatment were the mean of 2 replicate wells. For initial screening purposes, compounds were tested using an 8 point dilution curve (serial 1:3 dilutions). For each experiment, controls (containing MG132 and BAFF but no test drug) and a blank incubation (containing MG132 and BAFF and 1 μM ADS125117, a test concentration known to give full inhibition) were run in parallel. The blank incubation value was subtracted from all control and sample values. To determine the IC50 a sigmoidal curve was fitted to the plot of % inhibition of control P-IKKα levels versus Log10 compound concentration.
Assay C was performed at 2 different locations.
as §1

[4] = location 2, AlphaScreen auto-phosphorylation, read-out: Assay B location 2 IC50
[5] = Homo sapiens, L-363, location 1, read-out: Assay C location 1 IC50
[6] = Homo sapiens, L-363, location 2, read-out: Assay C location 2 IC50
[7] = location 1, NIK auto-phosphorylation, AlphaScreen, read-out: Assay B location 1 IC50
[8] = location 1, AlphaScreen auto-phosphorylation, read-out: Assay B location 1 IC50

T1 sequence (Q99558 whole entry): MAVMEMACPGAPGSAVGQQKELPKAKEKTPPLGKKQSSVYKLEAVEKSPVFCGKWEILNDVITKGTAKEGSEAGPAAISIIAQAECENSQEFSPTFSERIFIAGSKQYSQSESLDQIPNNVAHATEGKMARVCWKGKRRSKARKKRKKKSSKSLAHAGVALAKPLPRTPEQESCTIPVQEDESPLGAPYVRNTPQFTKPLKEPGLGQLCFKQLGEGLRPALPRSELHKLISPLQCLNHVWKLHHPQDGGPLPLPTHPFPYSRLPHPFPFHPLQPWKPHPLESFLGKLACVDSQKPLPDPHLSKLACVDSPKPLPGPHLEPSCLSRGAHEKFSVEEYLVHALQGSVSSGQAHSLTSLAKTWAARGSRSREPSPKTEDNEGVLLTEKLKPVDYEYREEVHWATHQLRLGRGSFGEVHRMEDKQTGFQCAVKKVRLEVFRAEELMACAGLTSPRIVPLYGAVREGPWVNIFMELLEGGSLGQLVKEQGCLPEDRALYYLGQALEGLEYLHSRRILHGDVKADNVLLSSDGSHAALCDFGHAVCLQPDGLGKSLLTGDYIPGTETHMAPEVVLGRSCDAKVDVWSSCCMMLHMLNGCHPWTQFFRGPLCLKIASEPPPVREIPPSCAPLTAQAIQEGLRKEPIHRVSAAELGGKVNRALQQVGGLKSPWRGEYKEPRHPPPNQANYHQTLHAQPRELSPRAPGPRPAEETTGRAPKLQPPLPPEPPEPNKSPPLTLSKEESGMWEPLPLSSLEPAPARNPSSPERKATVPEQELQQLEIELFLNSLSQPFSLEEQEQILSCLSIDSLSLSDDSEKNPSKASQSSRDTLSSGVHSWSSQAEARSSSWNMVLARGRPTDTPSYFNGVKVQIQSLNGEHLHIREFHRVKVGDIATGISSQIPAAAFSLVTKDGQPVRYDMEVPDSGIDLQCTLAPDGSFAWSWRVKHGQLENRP

Structure (SMILES)	IC50 [1] [nM]	IC50 [2, 4] [nM]	IC50 [3, 5] [nM]	IC50 [3, 6] [nM]	IC50 [2, 7] [nM]	melting point [°C]	IC50 ([3]; location 2, read-out: Assay C location 2 IC50) [nM]	IC50 [2, 8] [nM]
Cc1cc(C(=O)N2CCC(O)CC2)ccc1Nc1nccc(-c2cnc3c(c2)C(C)(C)CN3)n1 [Compound 54]	8.9	3.4	263	373	–	–	–	–
Cc1cc(C(=O)NC2CN(C)C2)ccc1Nc1nccc(-c2cnc3c(c2)C(C)(C)CN3)n1 [Compound 55]	32.4	3.3	–	288	–	–	–	–
COc1cc(C(=O)NC2CCOCC2)ccc1Nc1ncc(Cl)c(-c2cnc3c(c2)C(C)(CO)CN3)n1 (single isomer, unassigned) [Compound 350]	–	–	–	–	295	> 250	–	–
CC(=O)NCc1ccc(Nc2nccc(-c3cnc4c(c3)C(C)(CO)CN4)n2)c(C)c1 (centres unmarked) [Compound 86]	15.1	11.2	–	550	–	–	–	–
COc1cc(N2CC3(CCOCC3)C2)c(Cl)cc1Nc1ncc(Cl)c(-c2cnc3c(c2)C(C)(CO)CN3)n1 (single isomer, unassigned) [Compound 347]	–	–	–	–	144	> 250	–	–
COc1cc(C(=O)NC2CCOCC2)ccc1Nc1nccc(-c2cnc3c(c2)C(C)(CO)CN3)n1 (centres unmarked) [Compound 1]	12	2.6	–	129	–	–	–	–
Cc1cc(C(=O)N2CCC(O)CC2)ccc1Nc1nccc(-c2cnc3c(c2)C(C)(CO)CN3)n1 (centres unmarked) [Compound 109]	10.2	5.5	–	309	–	–	–	–
CC1(C)CNc2ncc(-c3ccnc(Nc4ccc(C(=O)NC5CCOCC5)cc4OC(F)F)n3)cc21 [Compound 82]	24.6	2.7	–	282	–	–	–	–
CC(=O)NCc1ccc(Nc2nccc(-c3cnc4c(c3)C(C)(C)CN4)n2)c(C)c1 [Compound 44]	20	2.5	–	243	–	–	–	–
COc1cc(Nc2nccc(-c3cnc4c(c3)C(C)(CO)CN4)n2)cc(OC)c1OC (centres unmarked) [Compound 46]	3.3	2.8	–	~129	–	–	–	–
Cc1cc(C(=O)N2CCN(C)CC2)ccc1Nc1nccc(-c2cnc3c(c2)C(C)(C)CN3)n1 [Compound 81]	14.8	2.6	–	589	–	–	–	–
Cc1cc(C(=O)NC2CN(C)C2)ccc1Nc1nccc(-c2cnc3c(c2)C(C)(CO)CN3)n1 (centres unmarked) [Compound 89]	63.1	20.4	–	5010	–	–	–	–
Cc1cc(C(=O)N2CCS(=O)(=O)CC2)ccc1Nc1nccc(-c2cnc3c(c2)C(C)(CO)CN3)n1 (centres unmarked) [Compound 134]	3.9	4.4	–	776	–	–	–	–
COC1CCN(C(=O)c2ccc(Nc3nccc(-c4cnc5c(c4)C(C)(CO)CN5)n3)c(C)c2)CC1 (centres unmarked) [Compound 121]	11.2	7.2	–	–	–	–	380	–
Cc1ccc(Cl)cc1Nc1nccc(-c2cnc3c(c2)C(C)(CO)CN3)n1 (centres unmarked) [Compound 355]	–	–	–	–	2.5	221	–	–
COc1cc(CNC(C)=O)c(C)c(Nc2nccc(-c3cnc4c(c3)C(C)(C)CN4)n2)c1 [Compound 49]	6.2	1.8	550	43.7	–	–	–	–
Cc1cc(C(=O)N2CCOCC2)ccc1Nc1nccc(-c2cnc3c(c2)C(C)(CO)CN3)n1 (centres unmarked) [Compound 120]	9.3	7.8	–	427	–	–	–	–
COc1cc(CNC(C)=O)ccc1Nc1nccc(-c2cnc3c(c2)C(C)(C)CN3)n1 [Compound 62]	5.5	1.4	–	43.7	–	–	–	–
COc1ccc(Cl)cc1Nc1nccc(-c2cnc3c(c2)C(C)(CO)CN3)n1 (centres unmarked) [Compound 354]	–	–	–	–	3	236	–	–

Structure (SMILES)	IC50 [1] [nM]	IC50 [2, 4] [nM]	IC50 [3, 5] [nM]	IC50 [3, 6] [nM]	IC50 [2, 7] [nM]	melting point [°C]	IC50 ([3]; location 2, read-out: Assay C location 2 IC50) [nM]	IC50 [2, 8] [nM]
COc1cc(C(=O)NC2CCOCC2)ccc1Nc1ncc(F)c(-c2cnc3c(c2)C(C)(CO)CN3)n1 (single isomer, unassigned) [Compound 349]	–	–	–	–	3.6	> 250	–	–
COc1cc(C(=O)NC2CCOCC2)ccc1Nc1nccc(-c2cnc3c(c2)C(C)(C)CN3)n1 [Compound 50]	7.4	1.2	–	81.3	–	–	–	–
COc1cc(C(=O)N2CCS(=O)(=O)CC2)ccc1Nc1nccc(-c2cnc3c(c2)C(C)(CO)CN3)n1 (centres unmarked) [Compound 132]	3.3	3.1	–	513	–	–	–	10
Cc1cc(C(=O)NC2CCOCC2)ccc1Nc1nccc(-c2cnc3c(c2)C(C)(CCC#N)CN3)n1 (centres unmarked) [Compound 125]	12.3	–	–	1230	–	–	–	31.6
COc1cc(C(=O)NC2CCN(C)CC2)ccc1Nc1nccc(-c2cnc3c(c2)C(C)(C)CN3)n1 [Compound 60]	5.5	1.2	–	407	–	–	–	–
COCCOc1ccc(Cl)cc1Nc1nccc(-c2cnc3c(c2)C(C)(CO)CN3)n1 (centres unmarked) [Compound 356]	–	–	–	–	24.6	208	–	–
Cc1cc(C(=O)NC2CCOCC2)ccc1Nc1nccc(-c2cnc3c(c2)C(C)(CC#N)CN3)n1 (centres unmarked) [Compound 126]	8.7	–	–	537	–	–	–	14.8
COc1cc(Nc2nccc(-c3cnc4c(c3)C(C)(CO)CN4)n2)c(C)c(C(=O)NC2CN(C)C2)c1 (centres unmarked) [Compound 90]	14.8	5.1	–	759	–	–	–	–
Cc1cc(C(=O)NC2CCOCC2)ccc1Nc1nccc(-c2cnc3c(c2)C(C)(CO)CN3)n1 (centres unmarked) [Compound 87]	21.4	13.5	–	1150	–	–	–	17.8
COc1cc(C(=O)N2CCC(OC)CC2)ccc1Nc1nccc(-c2cnc3c(c2)C(C)(CO)CN3)n1 (centres unmarked) [Compound 131]	4.5	0.9	–	70.8	–	–	–	–
CC(=O)NCc1ccc(Nc2nccc(-c3cnc4c(c3)C(C)(C)CN4)n2)c(OC(F)F)c1 [Compound 85]	14.1	3	–	67.6	–	–	–	–
COc1cc(C(=O)NC2CCN(C)CC2)ccc1Nc1nccc(-c2cnc3c(c2)C(C)(CO)CN3)n1 (centres unmarked) [Compound 130]	10.2	10.7	–	661	–	–	–	–
CC(=O)NCc1cccc(Nc2nccc(-c3cnc4c(c3)C(C)(CO)CN4)n2)c1C (centres unmarked) [Compound 360]	77.6	33.9	–	912	–	–	–	–
COC1CCN(C(=O)c2ccc(Nc3nccc(-c4cnc5c(c4)C(C)(C)CN5)n3)c(C)c2)CC1 [Compound 79]	11.8	1.3	661	74.1	–	–	–	–
Cc1cc(CNC(=O)C(C)C)ccc1Nc1nccc(-c2cnc3c(c2)C(C)(C)CN3)n1 [Compound 75]	12.3	–	–	135	–	–	–	–
COc1cc(CNC(C)=O)c(C)c(Nc2nccc(-c3cnc4c(c3)C(C)(CO)CN4)n2)c1 (centres unmarked) [Compound 84]	5.4	4.8	–	49	–	–	–	–
CN1CCC(NC(=O)c2ccc(Nc3nccc(-c4cnc5c(c4)C(C)(C)CN5)n3)c(C(F)(F)F)c2)CC1 [Compound 91]	339	–	–	> 10000	–	–	–	–
CCC(=O)NCc1ccc(Nc2nccc(-c3cnc4c(c3)C(C)(C)CN4)n2)c(C)c1 [Compound 74]	6.8	–	–	67.6	–	–	–	–
